# Measurements taken from EP0187355A1, “Process for preparing beta-lactam antibiotics” (E.R. Squibb & Sons, Inc., priority 1981, dated 1982).
# Counter-ions that a name gives are not always drawn. Like-named read-outs stand apart in the source and are kept apart here.
# Tests used:
# Assay in all cases: MIC, agar dilution
# Type in all cases: cell-based
# [1] = tested on: Acinetobacter calcoaceticus, 8333; conditions: Acinetobacter calcoaceticus, 8333, 18 h, K-10 agar, 10^4 CFU, 37°C
# Procedure: (§1) The following methodology is used to determine the minimum inhibitory concentration (hereinafter referred to as MIC) of the […] of this invention.
# (§2) The test organisms are grown in approximately 15-20 ml of Antibiotic Assay broth (Difco) by inoculating (in tubes) the broth with a loopful of the organism from a BHI (Difco) agar slant. The inoculated tubes are incubated at 37°C for 18 to 20 hours. These cultures are assumed to contain 10^9 colony forming units (hereinafter CFU) per milliliter. The cultures are diluted 1:100 to give a final inoculum level of 10^4 CFU; dilutions are made with K-10 broth^*.
# (§3) The compounds are dissolved in the appropriate diluent at a concentration of 1000 µg/ml. Twofold dilutions are made in K-10 broth resulting in a range from 1000 µg/ml to 0.5 µg/ml. 1.5 ml of each dilution is placed into individual square petri dishes to which 13.5 ml of K-10 agar^** is added. The final drug concentration in the agar ranges from 100 µg/ml to 0.05 µg/ml. Organism growth control plates containing agar only are prepared and inoculated before and after the test plates. The organisms are applied to the agar surface of each plate with the Denley Multipoint Inoculator (which delivers approximately 0.001 ml of each organism) resulting in a final inoculum level of 10^4 CFU on the agar surface.
# (§4) The plates are incubated at 37 °C for 18 hours and the MIC's are determined. The MIC is the lowest concentration of compound inhibiting growth of the organism.
# (§5) The tables that follow are tabulated results obtained when the B-lactams of this invention are tested against various organisms. The number following each organism refers to the number of the organism in the collection of E. R. Squibb & Sons,.Inc., Princeton, New Jersey. […] The symbol "N.T." means not tested.
# [2] = tested on: Citrobacter freundii, 9518; conditions: K-10 agar, 10^4 CFU, 37°C
# Procedure: as §1, §2, §3, §4, §5
# [3] = tested on: Enterobacter aerogenes, 10078; conditions: Klebsiella aerogenes, 10078, 18 h
# Procedure: as §1, §2, §3, §4, §5
# Escherichia coli, 10857 = conditions: Escherichia coli, 10857, 18 h, K-10 agar, 10^4 CFU, 37°C
# Procedure: as §1, §2, §3, §4, §5
# Escherichia coli, 10896 = conditions: K-10 agar, 10^4 CFU, 37°C, 18 hours
# Procedure: as §1, §2, §3, §4, §5
# Escherichia coli, 10909 = conditions: K-10 agar, 10^4 CFU, 37°C, 18 hours
# Procedure: as §1, §2, §3, §4, §5
# Escherichia coli, 8294 = conditions: Escherichia coli, 8294, 18 h, K-10 agar, 10^4 CFU, 37°C
# Procedure: as §1, §2, §3, §4, §5
# [4] = tested on: Klebsiella aerogenes, 10440; conditions: K-10 agar, 10^4 CFU, 37°C
# Procedure: as §1, §2, §3, §4, §5
# [5] = tested on: Klebsiella pneumoniae, 9527; conditions: Klebsiella pneumoniae, 9527, 18 h, K-10 agar, 10^4 CFU, 37°C
# Procedure: as §1, §2, §3, §4, §5
# Proteus mirabilis, 3855 = conditions: Proteus mirabilis, 3855, 18 h, K-10 agar, 10^4 CFU, 37°C
# Procedure: as §1, §2, §3, §4, §5
# Proteus rettgeri, 8479 = conditions: K-10 agar, 10^4 CFU, 37°C
# Procedure: as §1, §2, §3, §4, §5
# Proteus vulgaris, 9416 = conditions: K-10 agar, 10^4 CFU, 37°C
# Procedure: as §1, §2, §3, §4, §5
# [6] = tested on: Pseudomonas aeruginosa, 8329; conditions: K-10 agar, 10^4 CFU, 37°C
# Procedure: as §1, §2, §3, §4, §5
# [7] = tested on: Pseudomonas aeruginosa, 9545; conditions: Pseudomonas aeruginosa, 9545, 18 h, K-10 agar, 10^4 CFU, 37°C
# Procedure: as §1, §2, §3, §4, §5
# Salmonella typhosa, 1195 = conditions: Salmonella enterica, TYPHOSA, 18 h, K-10 agar, 10^4 CFU, 37°C
# Procedure: as §1, §2, §3, §4, §5
# [8] = tested on: Serratia marcescens, 9783; conditions: Serratia marcescens, 9783, 18 h, K-10 agar, 10^4 CFU, 37°C
# Procedure: as §1, §2, §3, §4, §5
# Shigella sonnei, 8449 = conditions: Shigella sonnei, 8449, 18 h, K-10 agar, 10^4 CFU, 37°C
# Procedure: as §1, §2, §3, §4, §5
# [9] = tested on: Staphylococcus aureus, 10165
# Procedure: as §1, §2, §3, §4, §5
# [10] = tested on: Staphylococcus aureus, 1276
# Procedure: as §1, §2, §3, §4, §5
# [11] = tested on: Staphylococcus aureus, 2399; conditions: Staphylococcus aureus, 2399, 18 h
# Procedure: as §1, §2, §3, §4, §5
# [12] = tested on: Staphylococcus aureus, 2400
# Procedure: as §1, §2, §3, §4, §5
# [13] = tested on: Streptococcus faecalis, 9011
# Procedure: as §1, §2, §3, §4, §5
# [14] = tested on: Streptococcus agalactiae, 9287; conditions: Streptococcus agalactiae, 9287, 18 h, K-10 agar, 10^4 CFU, 37°C
# Procedure: as §1, §2, §3
# (§6) The MIC is the lowest concentration of compound inhibiting growth of the organism.
# (§7) The number following each organism refers to the number of the organism in the collection of E. R. Squibb & Sons,.Inc., Princeton, New Jersey. […] The symbol "N.T." means not tested.
# [15] = tested on: Enterobacter cloacae, 8236; conditions: Enterobacter cloacae, 8236, 18 h, K-10 agar, 10^4 CFU, 37°C
# Procedure: as §1, §2, §3, §6, §7
# Micrococcus luteus, 2495 = conditions: Micrococcus luteus, 2495, 18 h, K-10 agar, 10^4 CFU, 37°C, read-out: M.I.C.
# Procedure: as §1, §2, §3, §6, §7
smiles,measurement,setting,value
"CC1C(NC(=O)C(=NOC(C)(C)C(=O)O)c2csc(N)n2)C(=O)N1S(=O)(=O)O (stereo not drawn) [Example 6, [3S-[3α (Z) ,4β]]3-[[(2-Amino-4-thiazolyl) [[1-carboxy-1-methylethoxy)imino]acetyl)amino)-4-methyl-2-oxo-1-azetidinesulfonic acid, dipotassium salt]",MIC,[1],100 µg/mL
same,MIC,"[2]; Citrobacter freundii, 9518, 18 h",0.4 µg/mL
same,MIC,[3],0.4 µg/mL
same,MIC,"Escherichia coli, 10857",< 0.05 µg/mL
same,MIC,"Escherichia coli, 10896",0.2 µg/mL
same,MIC,"Escherichia coli, 10909",< 0.05 µg/mL
same,MIC,"Escherichia coli, 8294",0.4 µg/mL
same,MIC,"[4]; Klebsiella aerogenes, 10440, 18 h",0.4 µg/mL
same,MIC,[5],< 0.05 µg/mL
same,MIC,"Proteus mirabilis, 3855",< 0.05 µg/mL
same,MIC,"Proteus rettgeri, 8479; Providencia rettgeri, 8479, 18 h",< 0.05 µg/mL
same,MIC,"Proteus vulgaris, 9416; Proteus vulgaris, 9416, 18 h",< 0.05 µg/mL
same,MIC,"[6]; Pseudomonas aeruginosa, 8329, 18 h",3.1 µg/mL
same,MIC,[7],0.8 µg/mL
same,MIC,"Salmonella typhosa, 1195",< 0.05 µg/mL
same,MIC,[8],0.2 µg/mL
same,MIC,"Shigella sonnei, 8449",0.2 µg/mL
same,MIC,"[9]; Staphylococcus aureus, 10165, 18 h",> 100 µg/mL
same,MIC,"[10]; Staphylococcus aureus, 1276, 18 h",> 100 µg/mL
same,MIC,[11],> 100 µg/mL
same,MIC,"[12]; Staphylococcus aureus, 2400, 18 h",> 100 µg/mL
same,MIC,"[13]; Enterococcus faecalis, 9011, 18 h",> 100 µg/mL
same,MIC,[14],50 µg/mL
"CC1C(NC(=O)C(=NO)c2csc(N)n2)C(=O)N1S(=O)(=O)O (stereo not drawn) [Example 13, [3S-[3α(Z),4β]]-3-[[(2-amino-4-thiazolyl)-(hydroxyimino)acetyl]amino]-4-methyl-2-oxo-1-azetidinesulfonic acid, potassium salt]",MIC,[1]; read-out: M.I.C.,12.5 µg/mL
same,MIC,"[2]; 18 hours, read-out: M.I.C.",0.8 µg/mL
same,MIC,"[3]; Enterobacter aerogenes, 10078, K-10 agar, 10^4 CFU, 37°C, 18 hours, read-out: M.I.C.",3.1 µg/mL
same,MIC,"Escherichia coli, 10857",1.6 µg/mL
same,MIC,"Escherichia coli, 10896",1.6 µg/mL
same,MIC,"Escherichia coli, 10909",0.8 µg/mL
same,MIC,"Escherichia coli, 8294",1.6 µg/mL
same,MIC,"[4]; 18 hours, read-out: M.I.C.",1.6 µg/mL
same,MIC,[5]; read-out: M.I.C.,1.6 µg/mL
same,MIC,"Proteus mirabilis, 3855; read-out: M.I.C.",1.6 µg/mL
same,MIC,"Proteus rettgeri, 8479; Providencia rettgeri, 18 hours, read-out: M.I.C.",0.1 µg/mL
same,MIC,"Proteus vulgaris, 9416; 18 hours, read-out: M.I.C.",0.8 µg/mL
same,MIC,"[6]; 18 hours, read-out: M.I.C.",> 100 µg/mL
same,MIC,[7]; read-out: M.I.C.,6.3 µg/mL
same,MIC,"Salmonella typhosa, 1195",0.8 µg/mL
same,MIC,[8]; read-out: M.I.C.,0.8 µg/mL
same,MIC,"Shigella sonnei, 8449",1.6 µg/mL
same,MIC,"[9]; Staphylococcus aureus, 10165, K-10 agar, 10^4 CFU, 37°C, 18 hours, read-out: M.I.C.",25 µg/mL
same,MIC,"[10]; Staphylococcus aureus, 1276, K-10 agar, 10^4 CFU, 37°C, 18 hours, read-out: M.I.C.",25 µg/mL
same,MIC,"[12]; Staphylococcus aureus, 2400, K-10 agar, 10^4 CFU, 37°C, 18 hours, read-out: M.I.C.",12.5 µg/mL
same,MIC,"[13]; Enterococcus faecalis, Streptococcus faecalis, 9011, K-10 agar, 10^4 CFU, 37°C, 18 hours, read-out: M.I.C.",> 100 µg/mL
same,MIC,[15],1.6 µg/mL
same,MIC,"Micrococcus luteus, 2495",3.1 µg/mL
same,MIC,[14]; read-out: M.I.C.,25 µg/mL
